Data as given in patent US8053627B2, “Methods for treating demyelination disorders” (University of Chicago, priority 2005, dated 2011).
Several values for one entry are separate records, joined by “and”; a condition that tells them apart may be missing. Equal values may be shown once. Read-outs that look alike come from different tables or passages of the source.

Tests used:
[1] = tested on: EAE-induced demyelination; conditions: for Mean of maximum clinical score (mean ± S.D.): 0–5 point scale; for Day of onset of disease (PID: postimmunization day): n = 25; for CD3 T cell infiltration in the lumbar spinal cord / EAE-induced demyelination: myelin, axons and oligodendrocytes in the lumbar spinal cord: PID 17
[2] = tested on: myelinating oligodendrocytes in the CNS; assay: Ectopic CNS expression of IFN-γ during development (released from doxycycline at E14), wild-type or PERK+/− background; type: in vivo, mice
Text: To study the effect of INF-γ on the myelination of oligodendrocytes during mouse development, transgenic mice that allow for temporally regulated delivery of IFN-γ to the CNS using the tetracycline (tet) controllable system (Lin, et al. (2004) J. Neurosci. 24: 10074-10083) were generated. To drive tTA expression in astrocytes, the transcriptional regulatory region of the glial fibrillary acidic protein (GFAP) gene was chosen (Brenner, et al. (1994) J. Neurosci. 14: 1030-1037). GFAP/tTA mice were mated with TRE/IFN-γ mice to produce animals hemizygous for both transgenes. When these mice are maintained on doxycycline (DOX+), expression of the IFN-γ transgene is repressed (FIG. 10A); when the double transgenic mice are released from doxycycline (DOX−) INF-γ is expressed. For the purpose of these experiments, mice received doxycycline up to day 14 of development (E14), at which time the experimental animals (DOX−) stopped receiving doxycycline, while the control animals (DOX+) were continuously fed the dug. The mRNA for IFN-γ could be detected in the DOX− mice as early as 10 days after birth (data not shown).
Real time PCR analysis was performed to determine the levels of expression of INF-γ, MHC-1, BIP, CHOP, and caspase 12. The primers for the PCR reactions for BIP, CHP and caspase 12 are given in example 1. The sense and antisense primers for INF-γ were […] (SEQ ID NO: 39) and […] (SEQ ID NO: 40), respectively; and the sense and antisense primers for MHC-1 were MHC-I sense primer: ATTCCCCAAAGGCCCATGT (SEQ ID NO: 1); and MHC-I antisense primer: […] (SEQ ID NO: 2).
Western blot analysis was performed on the CNS of 14 day old mice to determine the expression of caspase-12 as described in Example 6.
Brain and spinal cord tissue were analyzed using immunohistochemical methods as follows. Anesthetized mice were perfused through the left cardiac ventricle with 4% paraformaldehyde in 0.1M PBS. The half-saggital brains and transcervical spinal cord were removed, postfixed with paraformaldehyde, cryopreserved in 30% sucrose, embedded in OCT and frozen on dry ice. Frozen sections were cut in a cryostat at a thickness of 10 μm. Coronal sections at the fornix region of the corpus callosum corresponding to Sidman sections 241-251 were selected for use, and all comparative analyses were restricted to midline corpus callosum (Sidman, et al. (1971) Atlas of the Mouse Brain and Spinal Cord (Harvard Univ. Press, Cambridge, Mass.). For immunohistochemistry, frozen sections were treated with −20° C. acetone, blocked with PBS containing 10% NGS and 0.1% Triton X-100 and incubated overnight with the primary antibody diluted in blocking solution. Appropriate fluorochrome- or enzyme-labeled secondary antibodies (Vector Laboratories, Burlingame, Calif.) were used for detection. An antibody against CC1 (APC7, 1:50; EMD Biosciences, Inc., La Jolla, Calif.) was used as a marker for mature oligodendrocytes. Antibody against MBP (1:1000; Sternberger Monoclonals, Lutherville, Mass.) was used to verify the degree of myelination. Antibody against active-caspase-3 (1:50, Cell signaling Technology, Beverly, Mass.) was used as a marker for apoptotic cells. Fluorescent stained sections were mounted with Vectashield mounting medium with DAPI (Vector Laboratories) and visualized with a Zeiss Axioplan fluorescence microscope. Images were captured using a Photometrics PXL CCD camera connected to an Apple Macintosh computer using the Open Lab software suite. Immunopositive cells were quantified by counting positive cells within the median of the corpus callosum, confined to an area of 0.04 mm^2. Only those cells with nuclei observable by DAPI staining were counted. Each MBP immunostaining slide was scored on a scale of zero to four. A score of zero indicates complete demyelination, and a score of four indicates normal myelination in the corpus callosum of adult mice. […]

[3] = tested on: Hippocampal organotypic cultures; assay: Hippocampal organotypic cultures (HOC), in vitro model of myelination, MBP Western blot; type: cell-based; conditions: 7 days of 100 U/ml IFN-γ exposure
Experimental: HOCs, were prepared and maintained as described previously (Kunkler and Kraig (1997) J Cereb Blood Flow Metab. 17:2643), and were maintained in vitro for 7 days before use. SAL at various concentrations was combined with 100 U/ml IFN-γ and added to the HOC cultures for 7 days. […] After 7 days of 100 U/ml IFN-γ exposure, the levels of MBP decreased approximately 80% in the HOCs (FIG. 29).

[4] = PERK+/+ background, listed as INF-γ
[5] = PERK+/+ background, peak of disease
[6] = PERK+/− background, released from doxycycline at E14
[7] = wild-type background, released from doxycycline at E14

## IFN-γ: pleotropic cytokine secreted by activated T lymphocytes and natural killer cells; delivered to the CNS by transgene or added as recombinant protein
[1]; DOX− double mice
  Incidence of death: 0/25
  Mean of maximum clinical score (mean ± S.D.): 1.63 ± 0.51
  Day of onset of disease (PID: postimmunization day): 14.7 ± 1.4
[1]; DOX− double mice, PID17
  MBP mRNA in the spinal cord vs age-matched naïve mice: not significantly decreased
[1]; DOX− double mice, listed as INF-γ
  Incidence of hind limb paralysis: 2 of 25 and 2/25
[1]; DOX− triple mice (PERK+/−)
  Incidence of death: 3/25
  Incidence of hind limb paralysis: 18/25
  Mean of maximum clinical score (mean ± S.D.): 2.71 ± 1.11
  Day of onset of disease (PID: postimmunization day): 13.6 ± 0.8
[1]; EAE onset
  CD3 positive T cell infiltration in the spinal cord: did not significantly affect
  CD11b positive monocyte infiltration in the spinal cord: increased
  PERK-eIF2α pathway in oligodendrocytes (p-PERK, p-eIF2α colocalization with CC1): markedly activated
[1]; EAE onset, PID14
  expression of iNOs, TNF-a, IL-2, IL-12 and IL-10 in the spinal cord (real time PCR): strongly enhanced
[1]; EAE onset, PID14, listed as INF-γ
  expression of iNOs, TNF-a, IL-2, IL-12 and IL-10 in the spinal cord (real time PCR): increased
[1]; PERK+/+ background
  CD3 T cell infiltration in the lumbar spinal cord: reduced
  EAE-induced demyelination: myelin, axons and oligodendrocytes in the lumbar spinal cord: protected
[1]; [4]
  CD3 T cell infiltration in the lumbar spinal cord: lower
  EAE-induced demyelination: myelin, axons and oligodendrocytes in the lumbar spinal cord: remained almost intact
[1]; [5]
  expression of IL-2 in spinal cord: decreased
  expression of IL-12 in spinal cord: decreased
  expression of IL-23 in spinal cord: decreased
[1]; PID14
  expression of IL-2 and IL-5 in the spinal cord (real time PCR): did not affect
[1]; mice heterozygous for the PERK mutation
  amelioration of EAE: did not ameliorate
[1]; peak of disease
  CD11b positive monocyte infiltration: did not change
  expression of IL-5 in spinal cord: did not significantly affect
  expression of IL-10 in spinal cord: did not significantly affect
  expression of iNOs or TNF-γ: did not significantly affect
[2]; CNS, PND 14, DOX− from E14
  BIP expression relative to control levels: approximately 1.6 times
  CHOP expression relative to control levels: ~2 times
  caspase-12 expression: strongly enhanced
[2]; DOX− double transgenic mice, wild-type background
  state of myelination: mildly hypomyelinated
[2]; PERK+/− background, 14-day-old
  decrease of oligodendrocyte numbers in the spinal cord (CC1): more than 50%
[2]; [6]
  mice that died by post natal day (PND) 27: more than 90%
  mice that experienced tonic seizures: approximately two-thirds
[2]; PERK+/− mice expressing IFN-γ, 14-day-old
  unmyelinated axons in the spinal cord: 81%±14.9%
[2]; released from doxycycline at E 14
  TUNEL positive oligodendrocytes in the cervical spinal cord, PERK+/− relative to wild-type background: 2.5 times
[2]; [7]
  survival: normal survival
  unmyelinated axons in the spinal cord: 30%±12.9%
[3]
  decrease of MBP levels in the HOCs: approximately 80%
